Test results: patent US12404279B2, “Deubiquitinase inhibitors and methods of use thereof” (Molecure S.A., priority 2021, dated 2025)
Structures can show the parent of a compound that is named as a salt.

What follows are compounds tested against full-length USP7 (Homo sapiens (Human), UniProt Q93009) (assay: Enzymatic assay to determine IC50 of USP7 inhibitors (Ubiquitin-Rhodamine 110 cleavage)). Conditions: 0.5 nM USP7, 0.5 μM Ubiquitin-Rhodamine 110, 45 min at 37° C.
Type: biochemical
Summary of the method: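 Full-length USP7 (0.5 nM) in 50 mM HEPES pH 7.5, 150 mM NaCl, 1 mM DTT, 1 mg/ml BSA, 0.05% Tween20 was preincubated 15 min with DTT at room temperature before compound addition.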

Sequence of full-length USP7 (Q93009 whole entry): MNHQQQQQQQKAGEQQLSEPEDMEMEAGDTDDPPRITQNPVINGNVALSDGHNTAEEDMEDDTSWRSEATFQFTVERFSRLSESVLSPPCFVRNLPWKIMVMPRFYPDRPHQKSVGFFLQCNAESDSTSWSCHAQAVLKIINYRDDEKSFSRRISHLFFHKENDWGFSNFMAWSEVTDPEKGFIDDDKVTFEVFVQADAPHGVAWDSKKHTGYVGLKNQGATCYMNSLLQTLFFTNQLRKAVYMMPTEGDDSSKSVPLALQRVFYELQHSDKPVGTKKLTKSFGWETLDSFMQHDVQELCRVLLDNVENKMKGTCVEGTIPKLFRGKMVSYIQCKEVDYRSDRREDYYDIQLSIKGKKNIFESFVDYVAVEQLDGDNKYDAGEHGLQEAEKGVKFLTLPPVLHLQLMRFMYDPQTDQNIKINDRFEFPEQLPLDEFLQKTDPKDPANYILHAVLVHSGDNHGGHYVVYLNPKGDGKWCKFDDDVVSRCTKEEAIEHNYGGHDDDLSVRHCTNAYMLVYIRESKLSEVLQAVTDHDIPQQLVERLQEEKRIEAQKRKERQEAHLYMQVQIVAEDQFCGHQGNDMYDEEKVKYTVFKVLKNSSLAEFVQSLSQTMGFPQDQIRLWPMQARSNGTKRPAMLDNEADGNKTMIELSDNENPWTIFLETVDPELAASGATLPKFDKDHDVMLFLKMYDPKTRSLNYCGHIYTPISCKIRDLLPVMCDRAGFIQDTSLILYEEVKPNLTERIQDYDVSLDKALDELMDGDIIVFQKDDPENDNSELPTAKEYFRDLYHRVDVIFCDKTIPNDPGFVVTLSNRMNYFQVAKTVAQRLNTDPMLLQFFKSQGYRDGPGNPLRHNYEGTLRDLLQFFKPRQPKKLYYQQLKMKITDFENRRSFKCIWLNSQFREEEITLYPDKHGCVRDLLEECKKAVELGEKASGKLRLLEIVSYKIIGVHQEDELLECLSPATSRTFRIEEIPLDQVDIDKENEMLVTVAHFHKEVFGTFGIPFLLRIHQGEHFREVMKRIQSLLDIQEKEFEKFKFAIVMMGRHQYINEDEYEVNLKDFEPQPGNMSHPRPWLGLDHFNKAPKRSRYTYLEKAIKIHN

Row | IC50 [nM] | Structure (SMILES)
1 | < 500 | Cc1cc(C(F)(F)F)nc(-c2ccnc3cc(CN4C(=O)C5C(C4=O)C5(C)C)sc23)c1C(=O)N1CC[C@H](CF)C1 (stereo partly drawn) [Example 105, 3-((7-(3-((S)-3-(fluoromethyl)pyrrolidine-1-carbonyl)-4-methyl-6-(trifluoromethyl)pyridin-2-yl)thieno[3,2-b]pyridin-2-yl)methyl)-6,6-dimethyl-3-azabicyclo[3.1.0]hexane-2,4-dione hydrochloride]
2 | < 500 | Cc1cc(C(F)(F)F)nc(-c2ccnc3cc(CN4C(=O)C5C(C4=O)C5(C)C)sc23)c1C(=O)N1C[C@@H](N)[C@@H](C)C1 (stereo partly drawn) [Example 106, 3-((7-(3-((3S,4S)-3-amino-4-methylpyrrolidine-1-carbonyl)-4-methyl-6-(trifluoromethyl)pyridin-2-yl)thieno[3,2-b]pyridin-2-yl)methyl)-6,6-dimethyl-3-azabicyclo[3.1.0]hexane-2,4-dione hydrochloride]
3 | < 500 | Cc1cc(C(F)(F)F)nc(-c2ccnc3cc(CN4C(=O)C5C(C4=O)C5(C)C)sc23)c1C(=O)N1C[C@@H](C)[C@H](N)C1 (stereo partly drawn) [Example 107, 3-((7-(3-((3S,4R)-3-amino-4-methylpyrrolidine-1-carbonyl)-4-methyl-6-(trifluoromethyl)pyridin-2-yl)thieno[3,2-b]pyridin-2-yl)methyl)-6,6-dimethyl-3-azabicyclo[3.1.0]hexane-2,4-dione hydrochloride]
4 | < 500 | Cc1cc(C(F)(F)F)nc(-c2ccnc3cc(CN4C(=O)C5C(C4=O)C5(C)C)sc23)c1C(=O)N1C[C@H]2CCN[C@H]2C1 (stereo partly drawn) [Example 108, 6,6-dimethyl-3-((7-(4-methyl-3-((3aR,6aR)-octahydropyrrolo[3,4-b]pyrrole-5-carbonyl)-6-(trifluoromethyl)pyridin-2-yl)thieno[3,2-b]pyridin-2-yl)methyl)-3-azabicyclo[3.1.0]hexane-2,4-dione dihydrochloride]
5 | < 500 | Cc1cc(C(F)(F)F)nc(-c2ccnc3cc(CN4C(=O)C5C(C4=O)C5(C)C)sc23)c1C(=O)N1CC[C@H](NC(=O)[C@@H](N)C(C)C)C1 (stereo partly drawn) [Example 109, (2S)-2-amino-N-((3S)-1-(2-(2-((6,6-dimethyl-2,4-dioxo-3-azabicyclo[3.1.0]hexan-3-yl)methyl)thieno[3,2-b]pyridin-7-yl)-4-methyl-6-(trifluoromethyl)nicotinoyl)pyrrolidin-3-yl)-3-methylbutanamide dihydrochloride]
6 | 500 to 1000 | Cc1cc(C(F)(F)F)nc(-c2ccnc3cc(CN4C(=O)C5C(C4=O)C5(C)C)sc23)c1C(=O)N1CC[C@H](NC(=O)[C@H](C)N)C1 (stereo partly drawn) [Example 110, (2S)-2-amino-N-((3S)-1-(2-(2-((6,6-dimethyl-2,4-dioxo-3-azabicyclo[3.1.0]hexan-3-yl)methyl)thieno[3,2-b]pyridin-7-yl)-4-methyl-6-(trifluoromethyl)nicotinoyl)pyrrolidin-3-yl)propanamide dihydrochloride]
7 | < 500 | Cc1cc(C(F)(F)F)nc(-c2ccnc3cc(CN4C(=O)C5C(C4=O)C5(C)C)sc23)c1C(=O)N1CCC(N)CC1 (centres unmarked) [Example 112, 3-((7-(3-(4-aminopiperidine-1-carbonyl)-4-methyl-6-(trifluoromethyl)pyridin-2-yl)thieno[3,2-b]pyridin-2-yl)methyl)-6,6-dimethyl-3-azabicyclo[3.1.0]hexane-2,4-dione dihydrochloride]

Same assay, conditions: at 1 μM of the test compound; given where IC50 not determined yet; read-out: percent value of inhibition of USP7 activity

Row | inhibition at 1 µM [%] | Structure (SMILES)
8 | < 20 | Cc1cc(C(F)(F)F)nc(-c2ccnc3cc(CN4C(=O)C5C(C4=O)C5(C)C)sc23)c1C(=O)NC1CCNCC1 (centres unmarked) [Example 111, 2-(2-((6,6-dimethyl-2,4-dioxo-3-azabicyclo[3.1.0]hexan-3-yl)methyl)thieno[3,2-b]pyridin-7-yl)-4-methyl-N-(piperidin-4-yl)-6-(trifluoromethyl)nicotinamide dihydrochloride]
